Experimental data published in patent US10392383B2, “3-(1H-benzo[d]imidazol-2-yl)-1H-pyrazolo[4,3-b]pyridines and therapeutic uses thereof” (Samumed, LLC, priority 2015, dated 2019).

Experiments:
[1] = tested on: primary human mesenchymal stem cells (hMSCs); experiment: Induction of chondrogenesis in human mesenchymal stem cells (nodule staining with Rhodamine B / Nile Red); type: cell-based; conditions: for Emax: TGF-β3 (10 ng/mL) as positive control, read-out: Max. Activity as % TGF-β3 activity; for EC50: concentration required to induce 50% levels of chondrogenesis vs TGF-β3, read-out: Conc (nM) of 50% TGF-β3 activity
In short: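 Primary hMSCs (passage 3–6) in incomplete chondrogenic induction medium were exposed 6 days at 37° C to compound (1:3 dilutions, 2700–10 nM in 96-well or 5000–2.2 nM in 384-well; 0.03% DMSO). Nodules stained with Rhodamine B/Nile Red were imaged; area normalized to DMSO wells for EC50, maximal activity and dose at maximum.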

[2] = tested on: Wnt activity (Sp5-Luc reporter, Wnt-responsive promoter) in SW480 colon carcinoma cells; experiment: Wnt activity screening assay: Sp5-Luc reporter gene assay in SW480 cells; type: cell-based; conditions: Homo sapiens, overnight incubation, 10-point curve starting from 10 μM
In short: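 Luminescence (BrightGlo) was normalised to DMSO-only wells and fitted with a four-parameter variable-slope model for EC50; beyond 10 μM, % inhibition at 10 μM is given. Stable Sp5-Luc SW480 reporter cells, 4,000/well in 1% FBS, were exposed overnight at 37 °C to compounds, top 10 μM, 1:3 dilutions, 0.1% DMSO.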

| EC50 [1] [nM] | EC50 [2] [nM] | SMILES | Emax [1] [%] |
| --- | --- | --- | --- |
| 62 | 3370 | CCNCc1cncc(-c2ccc3[nH]nc(-c4nc5c(-c6cc(F)cc(NCCN(C)C)c6)cccc5[nH]4)c3n2)c1 [Compound 454, N^1-(3-(2-(5-(5-((Ethylamino)methyl)pyridin-3-yl)-1H-pyrazolo[4,3-b]pyridin-3-yl)-1H-benzo[d]imidazol-4-yl)-5-fluorophenyl)-N^2,N^2-dimethylethane-1,2-diamine] | 104 |
| 7 | 4110 | Cc1cn(-c2cccc3[nH]c(-c4n[nH]c5ccc(-c6cncc(CN7CCCC7)c6)nc45)nc23)cn1 [Compound 210, 3-(4-(4-Methyl-1H-imidazol-1-yl)-1H-benzo[d]imidazol-2-yl)-5-(5-(pyrrolidin-1-ylmethyl)pyridin-3-yl)-1H-pyrazolo[4,3-b]pyridine] | 193 |
| 10 | 5480 | c1cncc(-c2ccc3[nH]nc(-c4nc5ccccc5[nH]4)c3n2)c1 [Compound 256, 3-(1H-Benzo[d]imidazol-2-yl)-5-(pyridin-3-yl)-1H-pyrazolo[4,3-b]pyridine] | 85 |
| – | 6550 | Oc1cncc(-c2ccc3[nH]nc(-c4nc5c(-c6cccc(F)c6)cccc5[nH]4)c3n2)c1 [Compound 517, 5-(3-(4-(3-Fluorophenyl)-1H-benzo[d]imidazol-2-yl)-1H-pyrazolo[4,3-b]pyridin-5-yl)pyridin-3-ol] | 45 |
| – | 2840 | Cc1cn(-c2cccc3[nH]c(-c4n[nH]c5ccc(-c6cncc(NC(=O)C7CCC7)c6)nc45)nc23)cn1 [Compound 217, N-(5-(3-(4-(4-Methyl-1H-imidazol-1-yl)-1H-benzo[d]imidazol-2-yl)-1H-pyrazolo[4,3-b]pyridin-5-yl)pyridin-3-yl)cyclobutanecarboxamide] | 32 |
| 7 | 2140 | Fc1cccc(-c2cccc3[nH]c(-c4n[nH]c5ccc(-c6cncc(OC7CCNCC7)c6)nc45)nc23)c1 [Compound 512, 3-(4-(3-Fluorophenyl)-1H-benzo[d]imidazol-2-yl)-5-(5-(piperidin-4-yloxy)pyridin-3-yl)-1H-pyrazolo[4,3-b]pyridine] | 75 |
| – | 518 | Cn1cc(-c2ccc3[nH]nc(-c4nc5c(-c6cccc(F)c6)cccc5[nH]4)c3n2)cn1 [Compound 508, 3-(4-(3-Fluorophenyl)-1H-benzo[d]imidazol-2-yl)-5-(1-methyl-1H-pyrazol-4-yl)-1H-pyrazolo[4,3-b]pyridine] | 48 |
| – | 1650 | FC1(F)CCN(Cc2cncc(-c3ccc4[nH]nc(-c5nc6c(-c7ccsc7)cccc6[nH]5)c4n3)c2)C1 [Compound 306, 5-(5-((3,3-Difluoropyrrolidin-1-yl)methyl)pyridin-3-yl)-3-(4-(thiophen-3-yl)-1H-benzo[d]imidazol-2-yl)-1H-pyrazolo[4,3-b]pyridine] | 39 |
| – | 1320 | Fc1cccc(-c2cccc3[nH]c(-c4n[nH]c5ccc(-c6ccncc6)nc45)nc23)c1 [Compound 18, 3-(4-(3-Fluorophenyl)-1H-benzo[d]imidazol-2-yl)-5-(pyridin-4-yl)-1H-pyrazolo[4,3-b]pyridine] | 39 |
| – | 3200 | Fc1cccc(-c2cccc3[nH]c(-c4n[nH]c5ccc(C6CCNCC6)nc45)nc23)c1 [Compound 505, 3-(4-(3-Fluorophenyl)-1H-benzo[d]imidazol-2-yl)-5-(piperidin-4-yl)-1H-pyrazolo[4,3-b]pyridine] | 46 |
| – | 1040 | Cc1cn(-c2cccc3[nH]c(-c4n[nH]c5ccc(-c6cncc(NC(=O)CC(C)C)c6)nc45)nc23)cn1 [Compound 198, 3-Methyl-N-(5-(3-(4-(4-methyl-1H-imidazol-1-yl)-1H-benzo[d]imidazol-2-yl)-1H-pyrazolo[4,3-b]pyridin-5-yl)pyridin-3-yl)butanamide] | 44 |
